{"source": "patent US20130244929A1", "about": "(priority 2010, published 2013)", "key": {"[1]": {"test_system": "Staphylococcus aureus (strain B, MRSA COL)", "assay": "Disseminated MRSA infection mouse model", "assay_type": "in vivo, mice BALB/c", "experimental": "(§1) Female mice BALB/c mice (20-25 g) were rendered neutropenic via intraperitoneal injection of cyclophosphamide (Mead Johnson Pharmaceuticals) on Day −4 (250 mg/kg, disseminated) or Days −4/−1 (150/100 mg/kg, deep thigh) prior to experimental infection. Neutropenic mice were infected on Day 0 via intraperitoneal (disseminated) or intramuscular (deep thigh) injection of 0.1 ml containing ˜1-5×10^4 CFU Staphylococcus aureus (strain B, MRSA COL). Linezolid (Zyvox IV solution, Bell Medical) was employed as an assay control. Fifteen minutes post infection, increasing doses of Example 3 (20, 40 and 80 mg/kg) or vehicle were administered subcutaneously (SC) TID with or without Imipenem/Cilastatin (6/50 mg/kg SC TID, disseminated; 10/50 mg/kg SC TID, deep thigh). Twenty four hours post dosing, mice were euthanized and infected kidneys (disseminated) or thighs (deep thigh) were aseptically removed, placed in 4 ml sterile phosphate buffered saline (Fisher Scientific), and homogenized using a Polytron (Brinkmann Instruments). Homogenates were serially 100-fold diluted in 9.9 ml sterile saline and plated on Mannitol Salt Agar plates. Plates were incubated at 35° C. for 48 hours and colony forming units (CFU) of bacteria remaining per thigh were determined."}, "[2]": {"biological_target": "T1, SpsB (Staphylococcus aureus, UniProt P0A070)", "T1 construct": "using a bacterial membrane fraction as a source of SpsB; from tissue", "T1 sequence (P0A070 1-191)": "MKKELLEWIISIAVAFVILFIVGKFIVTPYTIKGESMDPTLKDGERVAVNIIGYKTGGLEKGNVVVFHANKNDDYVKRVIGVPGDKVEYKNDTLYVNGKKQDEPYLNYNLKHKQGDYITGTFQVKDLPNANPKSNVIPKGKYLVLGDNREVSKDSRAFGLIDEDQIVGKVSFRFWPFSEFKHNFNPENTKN", "assay": "Inhibition of SpsB enzyme activity (fluorescence-based assay, bacterial membrane fraction)", "assay_type": "biochemical", "outline": "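Membrane fraction from bacteria supplied SpsB (0.6 mg/mL final protein), added last to start reactions with 20 μM lipopeptide substrate decanoyl-K(DABCYL)-TPTAKA↓ASKKD-D(EDANS)-NH2 (Km≈5 μM). Cleavage was followed as rising fluorescence, excitation 340/emission 460 nm.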"}, "[3]": {"test_system": "MRSA strain COL", "assay": "Checkerboard studies with imipenem", "assay_type": "cell-based, Staphylococcus aureus", "settings": "combined with Imipenem, FIG. 1", "experimental": "FIG. 1: An SpsB inhibitor and Imipenem synergize to inhibit bacterial growth in vitro. The MIC of SpsB inhibitor on the MRSA strain COL was assessed by varying the concentration of the compound (0.016-16 μg/ml) in the absence and presence of various concentrations of Imipenem (0.5-32 μg/ml) and FIC values were generated for both compounds.\nThe checkerboard method is the technique most frequently used to assess antimicrobial combinations in vitro. See Antibiotics in Laboratory Medicine, Victor Lorian ed., 2005). The checkerboard comprises a two-dimensional dilution scheme: columns in which each well contains the same amount of Drug A being two-fold diluted along the x-axis, and rows in which each well contains the same amount of Drug B being two-fold diluted on the Y-axis. The result is that each well contains a unique combination of the two drugs being tested. Also tested is the antimicrobial activity of each agent singly.\nImipenem was two-fold serially diluted along the Y-axis of 96-well U-bottom microtiter dishes (Fisher Scientific) in microbiological growth media (either brain heart infusion broth or cation-adjusted Mueller-Hinton broth +2% NaCl). […]\nIn this representation, data are expressed as fractional inhibitory concentrations (FIC), defined as the ratio between the MIC of one compound in the presence of the other, over its MIC alone. […]"}, "[4]": {"test_system": "Staphylococcus aureus (strain B, MRSA COL)", "assay": "Deep thigh MRSA infection mouse model", "assay_type": "in vivo, mice BALB/c", "experimental": "as §1"}, "[5]": {"test_system": "MB 5393 (COL), a methicillin-resistant S. aureus strain", "assay": "Determination of minimum and synergistic inhibitory concentration", "assay_type": "cell-based", "settings": "MRSA COL, 22 hours", "outline": "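Broth microdilution: two-fold compound dilutions (final 64 to 0.0313 μg/mL) tested with and without subinhibitory imipenem (4 μg/mL) against MRSA COL at ~5×10^5 CFU/mL, 37°C, 22-24 hr stationary. MIC is lowest concentration preventing visible growth without imipenem; SIC same with imipenem.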"}}, "note": "pIC50: −log10 of the molar value.", "data": [{"smiles": "CCCc1ccc(-c2ccc(C(=O)NCCC(=O)N[C@@H](CCCCN)C(=O)N(C)[C@@H]3C(=O)N[C@@H](C)C(=O)N[C@H](C(=O)O)Cc4ccc(O)c(c4)-c4cc3ccc4O)cc2)cc1.O=C(O)C(F)(F)F", "note": "[EXAMPLE 3, (5S)-6-[[(7S,10S,13S)-13-carboxy-3,18-dihydroxy-10-methyl-8,11-dioxo-9,12-diazatricyclo[13.3.1.1^2,6]icosa-1(19),2(20),3,5,15,17-hexaen-7-yl](methyl)amino]-6-oxo-5-[(3-{[(4′-propylbiphenyl-4-yl)carbonyl]amino}propanoyl)amino]hexan-1-aminium trifluoroacetate]", "values": [{"measurement": "effect on MRSA COL bacterial burden", "setting": "[1]; Example 3 alone, 20, 40 and 80 mg/kg SC TID, kidneys, relative to vehicle, FIG. 2A", "value": "negligible anti-bacterial effects"}, {"measurement": "reduction in bacterial burden", "setting": "[1]; co-administered with Imipenem/Cilastatin 6/50 mg/kg SC TID, disseminated", "value": "2-3 log"}, {"measurement": "pIC50", "setting": "[2]", "value": "> 8.00"}, {"measurement": "synergy in isobologram (FIC) of bacterial growth", "setting": "[3]", "value": "synergistic effect"}, {"measurement": "effect on MRSA COL bacterial burden", "setting": "[4]; Example 3 alone, 20, 40 and 80 mg/kg SC TID, thighs, relative to vehicle, FIG. 2B", "value": "negligible anti-bacterial effects"}, {"measurement": "reduction in bacterial burden", "setting": "[4]; co-administered with Imipenem/Cilastatin 10/50 mg/kg SC TID, deep thigh", "value": "2-3 log"}, {"measurement": "SIC", "setting": "[5]; presence of imipenem (4 μg/mL)", "value": "H (H: SIC 0.062-1)"}, {"measurement": "MIC", "setting": "[5]; Staphylococcus aureus, absence of imipenem, read-out: MIC", "value": "< 1", "unit": "mg/L"}]}]}
